This is an account of results in patent publication US20170107207A1, “AMINOPYRAZOLONE DERIVATIVE” (DAIICHI SANKYO COMPANY, LIMITED, priority 2014, published 2017).

Usually IC50 stands for the concentration that gives 50% inhibition. Higher therefore signals weaker potency. One may read the GI50 as the concentration at which growth is held to half of that of the control. A low value points to more potent growth inhibition.

One experiment addresses T1, TIP48/TIP49 complex (Homo sapiens, UniProt Q9Y230+Q9Y265).
T1 construct: made in house; host or cells: E. coli
The experiment is described as follows: ATPase assay of TIP48/TIP49 complex (ADP-Glo). The following applies: concentration at which the ATPase activity was inhibited by 50%. The class given is biochemical. The source says:
The ATPase activity of the TIP48/TIP49 complex can be measured by use of an ATPase assay described below in Test Examples 1 and 2. The ATPase activity of the TIP48/TIP49 complex can be measured, as described below in the Test Examples, for example, by using recombinant human TIP48 and TIP49 proteins (hereinafter, referred to as rTIP48 and rTIP49) and ATP in the presence or absence of a test compound and measuring the amount of ADP formed through hydrolysis by the ATPase activity of the TIP48/TIP49 complex, using ADP-Glo. Alternatively, the ATPase activity of the TIP48/TIP49 complex can be measured by a method described in, for example, J. Mol. Biol. 366, 172-179 (2007).
An ATPase assay of a TIP48/TIP49 complex was conducted using rTIP48 and rTIP49. Human TIP48 and TIP49 DNAs were purchased from Open Biosystems. Human TIP48 and TIP49 cDNAs cloned by PCR using the purchased DNAs were each integrated into plasmids for expression in E. coli and expressed in E. coli to obtain rTIP48 and rTIP49.
A test compound was dissolved at 10 mM using DMSO. The solution was diluted to 10 concentrations as 4-fold serial dilutions from 10 mM using DMSO.
A 2×assay buffer (100 mM Tris-HCl, pH 7.5, 100 mM NaCl, 40 mM MgCl2, 2 mM DTT, 20 μM ATP, and 0.2 mg/mL BSA) was dispensed at 24.5 μL/well to a 384-well assay plate.
Test compound solutions were dispensed thereto at 1 μL/well. Subsequently, the solution in each well was mixed using a plate mixer.
rTIP48 and rTIP49 were diluted to a concentration of 50 μg/mL using sterilized water. The diluted solution was dispensed at 24.5 μL/well to the 384-well assay plate. Subsequently, the solution in each well was mixed using a plate mixer (final concentration: 24.5 μg/mL) (concentration of each test compound solution: 200 μM, 50 μM, 12.5 μM, 3.12 μM, 0.78 μM, 0.20 μM, 0.049 μM, 0.012 μM, 0.003 μM, and 0.0007 μM; DMSO concentration: 2%).
After the mixing using the plate mixer, the assay plate was left standing at room temperature for 1.5 hours.
5 μL of the solution in each well was transferred to a white assay plate, and ADP-Glo Reagent from ADP-Glo Kinase Assay (Promega Corp., catalog No. V9101) was dispensed thereto at 5 μL/well. After completion of the reaction, the plate was left standing at room temperature for 40 minutes. Kinase Detection Reagent was further dispensed thereto at 5 μL/well, and the plate was left standing at room temperature for 30 minutes. Then, luminescence intensity was measured using a plate reader.
The ATPase inhibitory activity was calculated according to the expression given below.
The luminescence intensity of a well supplemented with the test compound and the TIP48/TIP49 complex was defined as A. The luminescence intensity of a well supplemented with only the TIP48/TIP49 complex was defined as B. The luminescence intensity of a well supplemented with neither the test compound nor the TIP48/TIP49 complex was defined as C. The ratio between the test compound-supplemented group and the test compound-nonsupplemented group (T/C value) was determined according to the following calculation expression:
The dose-response curve was calculated using GraphPad Prism 4 from the concentration of each of the serially diluted test compounds and the ATPase inhibitory activity (%) at this concentration.
A general note: In ADP-Glo the light output rises with the ADP produced.

In experiment [1] the test system is human lymphoma cell line RAMOS cells. The experiment in a line: Cell growth inhibition test using RAMOS cell, ATP assay (CellTiter-Glo). The note with it: cultured 3 days, 50% growth inhibition concentration. The class given is cell-based. The procedure:
A cell growth inhibition test was carried out by treating human lymphoma cell line RAMOS cells with a test compound for a given period and then counting the number of viable cells by MTT assay or CellTiter-Glo Luminescent Cell Viability Assay (manufactured by Promega Corp.; hereinafter, referred to as ATP assay).
RAMOS cells were inoculated at 4000 cells/40 μL/well to a 384-well plate containing the compound prepared in advance at predetermined concentrations. The cells thus inoculated were cultured at 37° C. for 3 days under 5% CO2. In order to measure a cell survival rate, CellTiter-Glo Reagent was added in an amount corresponding to 1/4 of the amount of the culture solution at the day of cell inoculation and at the final culture date and stirred at room temperature for 2 minutes. Then, luminescence intensity was measured using a plate reader. The cell survival rate was calculated according to the expression given below.
The number of viable cells and luminescence intensity have been confirmed to correlate with each other. Therefore, the rate of cell growth was calculated according to the following expression: Rate of cell growth (T/C %) of a test compound-supplemented well=100×[(B−C)/(A−C)] wherein A represents the luminescence intensity (final culture date) of a test compound-free well; B represents the luminescence intensity (final culture date) of a test compound-containing well; and C represents the luminescence intensity (day of cell inoculation) of a well at the start of contact of the cells with the test compound.
T/C % at each concentration of the test compound was determined. The concentration at which the test compound offered 50% growth rate was calculated as a GI50 value from the growth rates at two points interpolating 50% and the concentrations, and is shown in Table 56.
(Cellular ATP, detected with luciferase, serves as a proxy for viable cell number.)

T1 sequence (Q9Y230 whole entry): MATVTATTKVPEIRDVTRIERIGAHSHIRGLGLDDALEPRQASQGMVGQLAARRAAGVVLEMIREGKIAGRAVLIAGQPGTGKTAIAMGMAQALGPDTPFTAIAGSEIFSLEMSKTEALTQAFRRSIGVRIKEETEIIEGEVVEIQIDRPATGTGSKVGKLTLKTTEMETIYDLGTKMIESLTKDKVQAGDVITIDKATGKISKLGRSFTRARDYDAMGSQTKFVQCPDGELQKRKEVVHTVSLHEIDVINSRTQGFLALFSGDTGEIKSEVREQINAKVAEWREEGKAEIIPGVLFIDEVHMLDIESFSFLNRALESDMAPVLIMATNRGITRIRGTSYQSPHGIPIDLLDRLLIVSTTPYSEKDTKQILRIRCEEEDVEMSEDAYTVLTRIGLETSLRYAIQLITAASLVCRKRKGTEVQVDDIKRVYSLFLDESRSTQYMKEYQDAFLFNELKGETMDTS
T1 sequence (Q9Y265 whole entry): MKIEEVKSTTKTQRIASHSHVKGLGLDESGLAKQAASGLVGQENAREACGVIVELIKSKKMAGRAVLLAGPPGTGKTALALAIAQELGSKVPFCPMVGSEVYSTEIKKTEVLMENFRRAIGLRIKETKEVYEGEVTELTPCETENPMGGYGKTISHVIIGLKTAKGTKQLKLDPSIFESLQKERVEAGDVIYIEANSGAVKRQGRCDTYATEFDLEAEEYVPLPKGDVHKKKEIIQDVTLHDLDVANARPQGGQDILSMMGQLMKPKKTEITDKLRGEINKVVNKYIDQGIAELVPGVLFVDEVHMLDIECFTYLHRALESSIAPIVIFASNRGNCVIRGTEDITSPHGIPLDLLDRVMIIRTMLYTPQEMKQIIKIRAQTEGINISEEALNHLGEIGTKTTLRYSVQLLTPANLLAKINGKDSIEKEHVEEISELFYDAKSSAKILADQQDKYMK

At TIP48/TIP49 complex, `CCOc1ncc(Cl)cc1C(=O)NCC(C)(C)CC(=O)Nc1c(C(C)NC)n(C)n(-c2ccccc2)c1=O` (single isomer, unassigned) [Example 85, (+)-/(−)-5-Chloro-N-[2,2-dimethyl-4-({1-methyl-5-[1-(methylamino)ethyl]-3-oxo-2-phenyl-2,3-dihydro-1H-pyrazol-4-yl}amino)-4-oxobutyl]-2-ethoxypyridine-3-carboxamide] had an IC50 of 110 nM. This molecule also gave a GI50 in experiment [1] (Homo sapiens, Ramos, 72 h) of 300 nM.

As to `CCOc1ncc(Cl)cc1C(=O)NCC(C)(C)CC(=O)Nc1c(C(CN(C)C)OC)n(C)n(-c2ccccc2)c1=O` (single isomer, unassigned; (+)) [Example 83, (+)-5-Chloro-N-[4-({5-[2-(dimethylamino)-1-methoxyethyl]-1-methyl-3-oxo-2-phenyl-2,3-dihydro-1H-pyrazol-4-yl}amino)-2,2-dimethyl-4-oxobutyl]-2-ethoxypyridine-3-carboxamide], the IC50 at TIP48/TIP49 complex is 65 nM. Further, the GI50 in experiment [1] worked out at 490 nM.

`CCOc1ncc(Cl)cc1C(=O)NCC(C)(C)CC(=O)Nc1c(C(CN(C)C)OC)n(C)n(-c2ccccc2)c1=O` (single isomer, unassigned; (-)) [Example 82, (−)-5-Chloro-N-[4-({5-[2-(dimethylamino)-1-methoxyethyl]-1-methyl-3-oxo-2-phenyl-2,3-dihydro-1H-pyrazol-4-yl}amino)-2,2-dimethyl-4-oxobutyl]-2-ethoxypyridine-3-carboxamide] came in with an IC50 against TIP48/TIP49 complex of 49 nM. Besides, the 50% growth inhibitory concentration (GI50) in experiment [1] (Homo sapiens, Ramos, 72 h) came to 370 nM.

Take `CCOc1ncc(Cl)cc1C(=O)NCC(C)(C)CC(=O)Nc1c(C(C)NC)n(C)n(-c2ccccc2)c1=O` (single isomer, unassigned; (-)) [Example 86, (−)-5-Chloro-N-[2,2-dimethyl-4-({1-methyl-5-[1-(methylamino)ethyl]-3-oxo-2-phenyl-2,3-dihydro-1H-pyrazol-4-yl}amino)-4-oxobutyl]-2-ethoxypyridine-3-carboxamide]: inhibition against TIP48/TIP49 complex was half-maximal at 90 nM (IC50). In experiment [1], the GI50 came out at 180 nM.

Molecule `CCOc1ccc(Cl)cc1C(=O)NCC(C)(C)CC(=O)Nc1c(C(C)NC)n(C)n(-c2ccccc2)c1=O` (stereo not shown) [Example 1, 5-Chloro-N-[2,2-dimethyl-4-({1-methyl-5-[1-(methylamino)ethyl]-3-oxo-2-phenyl-2,3-dihydro-1H-pyrazol-4-yl}amino)-4-oxobutyl]-2-ethoxybenzamide] yielded a concentration for half-maximal inhibition (IC50) on TIP48/TIP49 complex of 170 nM. The GI50 in experiment [1] (Homo sapiens, Ramos, 72 h) was determined as 130 nM.

For the molecule `CCOc1ncc(Cl)cc1C(=O)NCC(C)(C)CC(=O)Nc1c(C(C)NC)n(C)n(-c2ccccc2)c1=O` (stereo not shown) [Example 2, 5-Chloro-N-[2,2-dimethyl-4-({1-methyl-5-[1-(methylamino)ethyl]-3-oxo-2-phenyl-2,3-dihydro-1H-pyrazol-4-yl}amino)-4-oxobutyl]-2-ethoxypyridine-3-carboxamide], at TIP48/TIP49 complex, it took 160 nM to reach half-maximal inhibition (IC50). The molecule further came in with a GI50 in experiment [1] (Homo sapiens, Ramos, 72 h) of 250 nM.

As to `COCc1cc2cc(Cl)cc(C(=O)NCC(C)(C)CC(=O)Nc3c(CCN(C)C)n(C)n(-c4ccccc4)c3=O)c2o1` [Example 15, 5-Chloro-N-[4-({5-[2-(dimethylamino)ethyl]-1-methyl-3-oxo-2-phenyl-2,3-dihydro-1H-pyrazol-4-yl}amino)-2,2-dimethyl-4-oxobutyl]-2-(methoxymethyl)benzofuran-7-carboxamide], the IC50 against TIP48/TIP49 complex was 76 nM. In addition, in experiment [1] (Homo sapiens, Ramos, 72 h), halving of growth (GI50) required 570 nM.

At TIP48/TIP49 complex, `CN(C)CCc1c(NC(=O)CC(C)(C)CNC(=O)c2cc(Cl)cc3c2OCCO3)c(=O)n(-c2ccccc2)n1C` [Example 16, 7-Chloro-N-[4-({5-[2-(dimethylamino)ethyl]-1-methyl-3-oxo-2-phenyl-2,3-dihydro-1H-pyrazol-4-yl}amino)-2,2-dimethyl-4-oxobutyl]-2,3-dihydro-1,4-benzodioxine-5-carboxamide] returned an IC50 of 68 nM. The molecule also yielded a GI50 in experiment [1] (Homo sapiens, Ramos, 72 h) of 570 nM.

For the molecule `CCOc1ccc(Cl)cc1C(=O)NCC(C)(C)CC(=O)Nc1c(CCNCC(F)(F)F)n(C)n(-c2ccccc2)c1=O` [Example 26, 5-Chloro-N-[2,2-dimethyl-4-({1-methyl-3-oxo-2-phenyl-5-[2-(2,2,2-trifluoroethylamino)ethyl]pyrazol-4-yl}amino)-4-oxobutyl]-2-ethoxybenzamide], the IC50 at TIP48/TIP49 complex worked out at 33 nM. Further, the GI50 in experiment [1] (Homo sapiens, Ramos, 72 h) amounted to 130 nM.

Regarding `CCOc1cc(F)c(Cl)cc1C(=O)NCC(C)(C)CC(=O)Nc1c(CCNCC(F)(F)F)n(C)n(-c2ccccc2)c1=O` [Example 27, 5-Chloro-N-[2,2-dimethyl-4-({1-methyl-3-oxo-2-phenyl-5-[2-(2,2,2-trifluoroethylamino)ethyl]-2,3-dihydro-1H-pyrazol-4-yl}amino)-4-oxobutyl]-2-ethoxy-4-fluorobenzamide], at TIP48/TIP49 complex, the IC50 was found to be 48 nM. Moreover, halving of growth in experiment [1] (Homo sapiens, Ramos, 72 h) (GI50) required 130 nM.

On TIP48/TIP49 complex, `COCOc1ccc(Cl)cc1C(=O)NCC(C)(C)CC(=O)Nc1c(CCN(C)C)n(C)n(-c2ccccc2)c1=O` [Example 28, 5-Chloro-N-[4-({5-[2-(dimethylamino)ethyl]1-methyl-3-oxo-2-phenyl-2,3-dihydro-1H-pyrazol-4-yl}amino)-2,2-dimethyl-4-oxobutyl]-2-(methoxymethoxy)benzamide] came in with an IC50 of 48 nM. This molecule returned a GI50 in experiment [1] (Homo sapiens, Ramos, 72 h) of 200 nM.

Consider `COCOc1cc(F)c(Cl)cc1C(=O)NCC(C)(C)CC(=O)Nc1c(CCN(C)C)n(C)n(-c2ccccc2)c1=O` [Example 29, 5-Chloro-N-[4-({5-[2-(dimethylamino)ethyl]1-methyl-3-oxo-2-phenyl-2,3-dihydro-1H-pyrazol-4-yl}amino)-2,2-dimethyl-4-oxobutyl]-4-fluoro-2-(methoxymethoxy)benzamide], for which inhibition at TIP48/TIP49 complex was half-maximal at 48 nM (IC50). This molecule also had a GI50 in experiment [1] (Homo sapiens, Ramos, 72 h) of 150 nM.

Take `CCOc1ncc(Br)cc1C(=O)NCC(C)(C)CC(=O)Nc1c(CCN(C)C)n(C)n(-c2ccccc2)c1=O` [Example 30, 5-Bromo-N-[4-({5-[2-(dimethylamino)ethyl]1-methyl-3-oxo-2-phenyl-2,3-dihydro-1H-pyrazol-4-yl}amino)-2,2-dimethyl-4-oxobutyl]-2-ethoxypyridine-3-carboxamide]: on TIP48/TIP49 complex, it took 94 nM to reach half-maximal inhibition (IC50). Further, halving of growth in experiment [1] (Homo sapiens, Ramos, 72 h) (GI50) required 480 nM.

At TIP48/TIP49 complex, `[2H]C([2H])([2H])N(CCc1c(NC(=O)CC(C)(C)CNC(=O)c2cc(Cl)ccc2OCC)c(=O)n(-c2ccccc2)n1C)C([2H])([2H])[2H]` [Example 31, N-{4-[(5-{2-[bis(trideuteriomethyl)amino]ethyl}-1-methyl-3-oxo-2-phenyl-2,3-dihydro-1H-pyrazol-4-yl)amino]-2,2-dimethyl-4-oxobutyl}-5-chloro-2-ethoxybenzamide] displayed an IC50 of 52 nM. Also, in experiment [1] (Homo sapiens, Ramos, 72 h), growth was halved (GI50) at 170 nM.
